How the values were obtained:
right atrium = assay: Action on extracted guinea pigs' hearts: right atrium sample (heart rate); design: species or system Hartley guinea pigs; conditions: for Heart Rates 10^-4(M): suppression at 10^-4 M; for Heart Rates 10^-5(M): suppression at 10^-5 M
From the text: (§1) Stunned by receiving a blow on the heads, Hartley guinea pigs (weighing 300-400 g) were fixed on the back regions to extract their hearts. Each of the extracted hearts was placed in a beaker containing the same Krebs-Henseleit solution as used in Test Example 4 and supplied with 95% O₂-5% CO₂ gases, thereby stripping it of blood deposits, and was then passed into a sample forming glass vessel. This vessel was previously filled with a Krebs-Henseleit solution and the above gaseous mixture continued to be supplied thereto during preparing the sample.
(§2) In order to prepare the sample, the right and left atria were cut out of the ventricular muscle along the atriventricular sulcus from the center of both the right and left auricles.
The thus extracted right atrium was suspended in a Magnus tube with a tension of 0.2 to 0.3 g, said tube supplied with 95% O₂ - 5% CO₂ gases, containing 10 ml of a Krebs-Henseleit solution and maintained at 32±1°C. The contraction of the sample was recorded on a recorder through an FD pickup simultaneously with counting and recording the beat with an instantaneous cardiograph unit.
(§3) The actions of the present and control compounds on the right (counting the heart rate) and left (measuring the systole force) atria are reported below.

left atrium = assay: Action on extracted guinea pigs' hearts: left atrium sample (systole force); design: species or system Hartley guinea pigs; conditions: electrically stimulated; for Systole Forces 10^-4(M): suppression at 10^-4 M; for Systole Forces 10^-5(M): suppression at 10^-5 M
From the text: as §1, §2
The extracted left atrium was fixed with a micro wire clamp through both the auricles in a Magnus tube supplied with 95% O₂ - 5% CO₂ gases, containing 30 ml of a Krebs-Henseleit solution and maintained at a solution temperature of 32±1°C, and then suspended therein under a checking tension of ca. 0.25 g. While a platinum bipolar electrode attached to the above-mentioned micro wire clamp was in contact with the atrium, stimuli were given to it by 1-Hz, 2-msec. and 10-V rectangular waves derived through an electrical stimulator and an isolator to record the movement of said atrium with an FD pickup connected with it through silk thread.
as §3

platelet aggregation = assay: Ex vivo action on inhibiting platelet aggregation after intravenous administration; assay type: in vivo, rat; conditions: inhibition of platelet aggregation relative to control; 30.0 mg/kg intravenously, blood gathered five minutes after; inducer collagen
Procedure: Five minutes after the test compound had been intravenously administered to the tail of a rat, blood was gathered from the descending aorta of the rat which was lightly etherized. Added to this blood was citric acid (3.8% sodium citrate) in a volume ratio of 1/10.
The thus treated blood was centrifuged at 1500 rpm for 5 minutes to obtain a supernatant fluid in the form of PRP. The residues were then again centrifuged at 4°C and 3000 rpm for 10 minutes to obtain a supernatant fluid in the form of PPP. For the platelet aggregation test, NAB HEMA TRACER 601 (Model PAT-60 made by Niko Bioscience Co., Ltd.) was used. […] of PRP were put in a PRP cuvette having a stirrer bar with the transmittance set at 0%, while 300 µl of PPP were put in a PPP cuvette with the transmittance set at 100%. After 1-minute preincubation, 20 µl of an aggregation inducer (collagen or ADP) were introduced.
A control group, to which dimethylacetamide and tartaric acid in a ratio of 2/3 were given in a quantity of 1 ml/kg, was treated similarly to the test group. Upon the addition of the aggregation inducer, a maximum transmittance change was read to find a platelet aggregation change in %. […] Table 3 sets out the results, from it is noted that the present compounds have a significant action on inhibiting platelet aggregation.

Row | Structure (SMILES) | Heart Rates 10^-4(M) (right atrium) | Heart Rates 10^-5(M) (right atrium) | Systole Forces 10^-4(M) (left atrium) | Systole Forces 10^-5(M) (left atrium) | inhibition of collagen-induced platelet aggregation (platelet aggregation) [%]
1 | CC(C(O)c1ccc(O)cc1)N1CCC(Cc2ccccc2)CC1 (stereo not shown) [B, ifenprodil] | ++ (++ indicates 20% or more suppression) | ++ (++ indicates 20% or more suppression) | + (+ 10-20% suppression) | - (- 0% suppression) | –
2 | CC(=O)Oc1ccccc1C(=O)O [Aspirin] | – | – | – | – | 77
3 | CC(C)NCC(O)COc1cccc2ccccc12 (stereo not shown) [A, propranolol] | ++ (++ indicates 20% or more suppression) | ++ (++ indicates 20% or more suppression) | ++ (++ indicates 20% or more suppression) | ++ (++ indicates 20% or more suppression) | –
4 | COc1ccc2c(c1)c(CC(=O)O)c(C)n2C(=O)c1ccc(Cl)cc1 [Indomethacin] | – | – | – | – | 49
